From US8962257B2, “Methods for diagnosing heart failure and other cardiac diseases” (The Trustees of the University of Pennsylvania, priority 2010, dated 2015)

Test system: NRG-1β
Test: Serial plasma NRG-1β by indirect sandwich ELISA in Her-2+ breast cancer patients receiving doxorubicin and trastuzumab
Format: in vivo, human
Settings: with Doxorubicin exposure
Experimental: NRG-1β is measured from frozen, previously unthawed serum or plasma samples that had been stored at −80° C. until time of assay. An indirect sandwich enzyme-linked immunosorbent assay (ELISA) was used (NRG1-β1 Duoset ELISA development system from R&D Systems, Minneapolis, Minn.). Assay technology was adapted for human samples, and all measurements were performed at Vanderbilt University. […] Following incubation, a biotinylated goat anti-human NRG1-β1 detection antibody was added to each well, and a streptavidin-HRP system was used for detection. […] Extensive validation was performed and there was no cross-reactivity with NRG-1α isoform or epidermal growth factor.
Data were obtained at enrollment and every 3 months during anti-cancer therapy.
NRG-1β plasma level was measured serially every 3 months during chemotherapy treatment.

COc1cccc2c1C(=O)c1c(O)c3c(c(O)c1C2=O)C[C@@](O)(C(=O)CO)C[C@@H]3O[C@H]1C[C@H](N)[C@H](O)[C@H](C)O1 [Doxorubicin, doxorubicin]
change in NRG-1β over time: significant decrease | change in NRG-1β over time (listed as doxorubicin): significant decline
